Assay results as given in patent publication US20100273189A1, “NON SEPARATION ASSAYS WITH SELECTIVE SIGNAL INHIBITORS” (BECKMAN COULTER, INC., priority 2009, published 2010).
Where two headings read alike, the source gives them in different places.

Key:
[1] = test system: PSA; assay: Screening SSIA by homogeneous PSA immunoassay; assay type: biochemical
Method: This example presents one method used for testing of candidate compounds for functionality as SSIA in assays of the present disclosure. Testing was conducted in a model screening immunoassay of the protein PSA. Mouse anti-PSA tests were run using a 96-well microtiter plate format. […] The plate was incubated at 37° C. for 10 minutes. A 5 μL aliquot of the test compound (various concentrations) was added to each well. Chemiluminescence was triggered by the addition of 100 μL of a solution of trigger solution A. The chemiluminescent flash was integrated for 5 seconds after the addition of the trigger solution using a Luminoskan Asent® plate luminometer, (Thermo Fischer Scientific, Inc., Waltham, Mass.).
It is desirable that the improvement factor be at least 2 (S5/S0≧ about 20-30) and more desirable that improvement factor be at least 5 (S5/S0≧ about 50), yet more desirable that S5/S0 be ≧100 in the present screen.

[2] = biological target: T1, biotinylated HRP (Armoracia rusticana, UniProt P00433); assay: Model system for selection of SSIA (M280 btn-BSA-AK1-streptavidin particles + Btn-HRP:HRP); assay type: biochemical; conditions: for B-HRP0 light intensity: Btn-HRP 0 ng/mL; for B-HRP0 light intensity / B-HRP1 light intensity / B-HRP10 light intensity / B-HRP100 light intensity / B-HRP250 light intensity: total HRP 500 ng/mL, SSIA final 100 μM; for B-HRP1 light intensity: Btn-HRP 1 ng/mL; for B-HRP10 light intensity: Btn-HRP 10 ng/mL; for B-HRP100 light intensity: Btn-HRP 100 ng/mL; for S/S0: Btn-HRP 0 ng/mL vs 0; for S/S0 / S1/S0 / S2/S0 / S3/S0 / S4/S0 / effect in the model system / utility as SSIA: SSIA 100 μM; for S1/S0: Btn-HRP 1 ng/mL vs 0; for S2/S0: Btn-HRP 10 ng/mL vs 0; for S3/S0: Btn-HRP 100 ng/mL vs 0; for S4/S0: Btn-HRP 250 ng/mL vs 0; for B-HRP250 light intensity: Btn-HRP 250 ng/mL; for effect in the model system / utility as SSIA: conclusion in words
T1 construct: purchased Roche Diagnostics, Indianapolis, Ind., USA
T1 sequence (P00433 31-338 limits assumed): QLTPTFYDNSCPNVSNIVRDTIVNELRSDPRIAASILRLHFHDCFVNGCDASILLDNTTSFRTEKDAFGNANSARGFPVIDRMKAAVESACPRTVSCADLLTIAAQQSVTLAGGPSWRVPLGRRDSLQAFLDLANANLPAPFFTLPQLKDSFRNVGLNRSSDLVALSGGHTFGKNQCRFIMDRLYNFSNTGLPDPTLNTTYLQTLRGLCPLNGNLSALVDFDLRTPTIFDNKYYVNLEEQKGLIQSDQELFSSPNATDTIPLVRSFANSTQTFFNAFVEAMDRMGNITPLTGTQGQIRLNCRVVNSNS
Method: The model system uses a microparticle conjugated to BSA (bovine serum albumin) labeled with a […] and acridan ketenedithioacetal chemiluminescent label (AK1) as the chemiluminescent-labeled sbp, and biotinylated HRP as the activator-labeled specific binding pair. In the model system, varying amounts of Btn-HRP is added to the chemiluminescent-labeled specific binding pair at 0, 1, 10, 100 and 250 ng/mL. Additional unlabeled HRP is added to reach a total HRP of concentration of 500 ng/mL in each reaction mixture. The unlabeled HRP in combination with the activator-labeled sbp was provided to the chemiluminescent-labeled sbp microparticles to emulate sample. A compound for assessment as an SSIA was also added. This reaction mixture of the model system is then triggered by addition of trigger solution in a manner of assays of the present disclosure.
To prepare the chemiluminescent-labeled sbp on microparticles, Bovine Serum Albumin (BSA) was biotinylated with 4× molar excess of biotin-LC-sulfoNHS (Pierce Biotechnology Inc., Rockford, Ill., USA). Unbound reactants were removed via desalting or dialysis. The biotin-BSA was then reacted with a 5× molar excess of acridan ketenedithioacetal AK1 in 20 mM sodium phosphate pH 7.2: DMSO 75:25, v/v) followed by desalting in the same buffer. The dual labeled (biotin and AK1) BSA was then coupled with tosyl activated M-280 microparticles (Invitrogen Corporation, Carlsbad, Calif., USA) in a 0.1 M borate buffer pH 9.5 at a concentration of ca. 20 μg labeled BSA per mg of microparticles for 16-24 h at 40° C. After coupling the microparticles were stripped for 1 h at 40° C. with 0.2 M TRIS base, 2% SDS, pH ˜11. The stripping process was repeated one additional time. Microparticles were then suspended in a 0.1% BSA/TRIS buffered saline (BSA/TBS) buffer and streptavidin (SA) was added at approximately 15 μg SA per mg microparticles. Streptavidin was mixed with the microparticles for 45-50 min at room temperature. The microparticles were then washed three times and suspended in the same BSA/TBS.
HRP, (Roche Diagnostics, Indianapolis, Ind., USA) was biotinylated with 4× molar excess of biotin-LC-sulfoNHS (Pierce Biotechnology Inc., Rockford, Ill., USA). Unbound reactants were removed via desalting or dialysis.
Each SSIA compound for assessment was dissolved in Buffer II at a concentration at least 10× of final concentration of the reaction mixture (after the addition of the trigger solution)
Paramagnetic particles (PMP): (M280)-(btn-BSA-AK)-(Streptavidin);
Sample Emulator: B-HRP:HRP; 500 ng/mL total with titration of B-HRP:HRP at Total HRP concentration of 500 ng/mL, with Btn-HRP variations: 0, 1, 10, 100 and 250 ng/mL.
SSIA: According to tables below in BUFFER II targeted to give a final concentration of 100 μM.
Trigger solution A is defined above.
5 μl of 1 mg/ml of dual-labeled (biotin and AK1) BSA M280 particles were mixed with 45 μl of working concentration SSIA in Buffer II. The assay volume brought to […] by adding 15 μl of Buffer II. 15 μl of sample containing Btn-HRP:HRP at different ratios (The amount of biotinylated-HRP varied from 0, 1, 10, 100 and 250 ng/mL) was added. The reaction mixture was incubated for 30 min at 37° C., then 100 μL of trigger solution was added and the light intensity recorded. Total volume of reaction mixture, including trigger solution was […] with a final concentration of 100 μM of SSIA.

[3] = PSA 129 ng/mL (S5) vs zero, test compound final conc. 0.122 mM
[4] = PSA 129 ng/mL (S5) vs zero, test compound final conc. 0.061 mM

Cc1cc(CO)c(O)c(CO)c1
S5/S0 [1, 3]: 23

Cc1ccc(O)c(O)c1
S5/S0 [1, 3]: 142

O=C(O)c1ccc(O)c(O)c1
S5/S0 [1, 3]: 178

Oc1cccc(O)c1O
S5/S0 [1, 3]: 69

O=C(O)c1cc(O)c(O)c(O)c1
S5/S0 [1, 3]: 135

COc1ccccc1O
S5/S0 [1, 3]: 13

Oc1ccc([C@@H]2Oc3cc(O)c(O)cc3C[C@@H]2O)cc1O
S5/S0 [1, 3]: 323

O=c1cc(O)c2ccccc2o1
S5/S0 [1, 3]: 17

O=c1ccc2cc(O)c(O)cc2o1
S5/S0 [1, 3]: 105

O=c1c(O)c(-c2ccccc2)oc2ccccc12
S5/S0 [1, 3]: 13

O=c1c(O)c(-c2ccccc2)oc2cc(O)ccc12
S5/S0 [1, 3]: 14

O=c1c(O)c(-c2ccccc2)oc2ccc(O)cc12
S5/S0 [1, 3]: 9

Nc1c(O)cc(S(=O)(=O)O)c2ccccc12
S5/S0 [1, 3]: 65

Oc1c(F)c(F)c(O)c(F)c1F
S5/S0 ([1]; PSA 129 ng/mL (S5) vs zero, test compound final conc. 0.014 mM): 50

Nc1ccc(O)cc1O
S5/S0 ([1]; PSA 129 ng/mL (S5) vs zero, test compound final conc. 0.030 mM): 161

O=C(O)c1cc(O)c2ccccc2n1
S5/S0 [1, 3]: 6

c1ccc2c(c1)Cc1ccccc1O2
S5/S0 [1, 3]: 4

O=c1c2ccccc2[nH]c2ccccc12
S5/S0 [1, 3]: 14

O=C1C(O)=C(O)C(=O)C(O)=C1O
S5/S0 [1, 4]: 51

O=C1C(O)=C(Cl)C(=O)C(O)=C1Cl
S5/S0 ([1]; PSA 129 ng/mL (S5) vs zero, test compound final conc. 0.031 mM): 7

Nc1ccccc1B(O)O
S5/S0 [1, 3]: 108

Nc1c(O)ccc2ccccc12
S5/S0 [1, 3]: 63

O=C(O)/C=C/c1ccc(O)c(O)c1
S5/S0 [1, 3]: 116

CC1(C)OC(=O)C(O)=C1O
S5/S0 [1, 3]: 467

Nc1ncccc1O
S5/S0 [1, 3]: 32

c1ccc2c(c1)Cc1ccccc1N2
S5/S0 [1]: 120

COc1cc(O)ccc1O
S5/S0 ([1]; PSA 129 ng/mL (S5) vs zero, test compound final conc. 0.111 mM): 161

Oc1cccnc1O
S5/S0 [1, 3]: 41

O=C(O)/C(O)=C(/O)C(=O)O
S5/S0 [1, 3]: 30

O=C(O)c1cccc(O)c1O
S5/S0 [1, 3]: 22

c1ccc2c(c1)Cc1ccccc1S2
S5/S0 [1, 3]: 9

O=C(O)C1c2ccccc2Oc2ccccc21
S5/S0 [1, 3]: 7

O=C(c1ccccc1)C1c2ccccc2Nc2ccccc21
S5/S0 [1, 3]: 9

NNC(=O)c1ccccc1O
S5/S0 [1, 4]: 23

Nc1ccccc1S
S5/S0 [1, 3]: 234

Oc1ccc(O)c(Br)c1
S5/S0 [1, 3]: 570

C[C@H]1OC(=O)C(O)=C1O
S5/S0 [1, 3]: 423

Oc1ccc(C=Cc2cc(O)cc(O)c2)cc1 [Resveratrol]
B-HRP0 light intensity [2]: 64,051
B-HRP1 light intensity [2]: 81,452
B-HRP10 light intensity [2]: 1,073,968
B-HRP100 light intensity [2]: 5,944,792

COc1cc(C(=O)O)cc(OC)c1O [Syringic Acid]
S/S0 [2]: 1
B-HRP0 light intensity [2]: 14,485
S1/S0 [2]: 1.6
B-HRP1 light intensity [2]: 23,707
S2/S0 [2]: 64.8
B-HRP10 light intensity [2]: 939,372
S3/S0 [2]: 547.2
B-HRP100 light intensity [2]: 7,927,096
S4/S0 [2]: 658
B-HRP250 light intensity [2]: 9,530,979

CC1(C)CC(O)CC(C)(C)N1[O] [TEMPOL]
S/S0 [2]: 1
B-HRP0 light intensity [2]: 22,621
S1/S0 [2]: 1.5
B-HRP1 light intensity [2]: 33,873
S2/S0 [2]: 86.8
B-HRP10 light intensity [2]: 1,963,369
S3/S0 [2]: 407.6
B-HRP100 light intensity [2]: 9,220,799
S4/S0 [2]: 467.6
B-HRP250 light intensity [2]: 10,578,104
effect in the model system / utility as SSIA [2]: no effect

Cc1c(C)c2c(c(C)c1O)CCC(C)(C(=O)O)O2 (centres unmarked) [Trolox ®, Trolox]
S/S0 [2]: 1
B-HRP0 light intensity [2]: 173
S1/S0 [2]: 8.4
B-HRP1 light intensity [2]: 1,460
S2/S0 [2]: 215.1
B-HRP10 light intensity [2]: 37,291
S3/S0 [2]: 41832.7
B-HRP100 light intensity [2]: 7,251,008
S4/S0 [2]: 62274.5
B-HRP250 light intensity [2]: 10,794,247
effect in the model system / utility as SSIA [2]: demonstrating utility as SSIA

O=c1[nH]c(=O)c2[nH]c(=O)[nH]c2[nH]1 [Uric Acid]
S/S0 [2]: 1
B-HRP0 light intensity [2]: 5,532
S1/S0 [2]: 1.8
B-HRP1 light intensity [2]: 9,760
S2/S0 [2]: 185.3
B-HRP10 light intensity [2]: 1,025,209
S3/S0 [2]: 1574.9
B-HRP100 light intensity [2]: 8,712,328
S4/S0 [2]: 1935.8
B-HRP250 light intensity [2]: 10,708,733
